# From ChEMBL document CHEMBL1126271, “Benzazepinone calcium channel blockers. 5. Effects on antihypertensive activity associated with N1 and aromatic substituents” (J Med Chem, 1992)
# pIC50: −log10 of the molar value.
# Experiments:
# Format in all cases: functional
# Rattus norvegicus [1] = experiment: Antihypertensive activity 12-18 hr after 135 umol/kg p.o. in rats.
# Rattus norvegicus [2] = experiment: Antihypertensive activity 6-12h after 135 umol/kg p.o. in rats.
# Oryctolagus cuniculus = organism: Oryctolagus cuniculus; experiment: In vitro vasorelaxant activity in circumferential strips of potassium-depolarized rabbit aorta.
# Rattus norvegicus [3] = experiment: Antihypertensive activity 0-6 hr after 135 umol/kg p.o. in rats.
# Rattus norvegicus [4] = organism: Rattus norvegicus; experiment: Extent of hydrolysis of C3 acetyl group of 0.4 mM of compound 30 min after exposure by rat liver homogenate
# Rattus norvegicus [5] = organism: Rattus norvegicus; experiment: Extent of hydrolysis of C3 acetyl group of 0.4 mM of compound 5 min after exposure by rat liver homogenate
Structure (SMILES),pIC50 (Oryctolagus cuniculus),Decrease in blood pressure (Rattus norvegicus [1]) [%],Decrease in blood pressure (Rattus norvegicus [2]) [%],Decrease in blood pressure (Rattus norvegicus [3]) [%],Hydrolysis (Rattus norvegicus [4]) [%],Hydrolysis (Rattus norvegicus [5]) [%]
COc1ccc([C@@H]2Sc3ccccc3N(C[C@@H]3CCCN3)C(=O)[C@@H]2O)cc1,5.88,9,10,10,,
COc1ccc([C@@H]2Sc3ccccc3N(CCN(C)C)C(=O)[C@@H]2OC(C)=O)cc1 [DILTIAZEM],,19,,20,100,68
COc1ccc([C@@H]2Cc3cc(C(F)(F)F)ccc3N(CCN(C)C)C(=O)[C@@H]2OC(C)=O)cc1,,,,19,,
COc1ccc([C@@H]2Cc3c(cccc3C(F)(F)F)N(C[C@@H]3CCCN3)C(=O)[C@@H]2OC(C)=O)cc1,,38,,44,0,0
COc1ccc(C2Cc3c(Cl)cccc3N(CCN(C)C)C(=O)C2OC(C)=O)cc1 (racemic),,,,10,,
COc1ccc([C@@H]2Cc3cc(OC)ccc3N(C[C@@H]3CCCN3)C(=O)[C@@H]2O)cc1,5.95,18,19,18,,
COc1ccc([C@@H]2Cc3cc(Cl)ccc3N(CCN(C)C)C(=O)[C@@H]2OC(C)=O)cc1,,12,12,12,,
COc1ccc([C@@H]2Cc3c(cccc3C(F)(F)F)N(CCN(C)C)C(=O)[C@@H]2OC(C)=O)cc1,,29,29,29,2,0

# Continued, in another order:
pIC50 (Oryctolagus cuniculus),Structure (SMILES),Decrease in blood pressure (Rattus norvegicus [1]) [%],Decrease in blood pressure (Rattus norvegicus [2]) [%],Decrease in blood pressure (Rattus norvegicus [3]) [%],Hydrolysis (Rattus norvegicus [4]) [%],Hydrolysis (Rattus norvegicus [5]) [%]
5.72,COc1ccc(C2Cc3cc(C(F)(F)F)ccc3N(CCN(C)C)C(=O)C2OC(C)=O)cc1 (stereo unspecified),,,,,
6.64,COc1ccc([C@@H]2Cc3cc(OC)ccc3N(C[C@@H]3CCCN3)C(=O)[C@@H]2OC(C)=O)cc1,31,33,39,3,3
6.92,COc1ccc([C@@H]2Sc3cc(OC)ccc3N(C[C@@H]3CCCN3)C(=O)[C@@H]2OC(C)=O)cc1,37,39,42,7,3
6.89,COc1ccc([C@@H]2Cc3c(Cl)cccc3N(C[C@@H]3CCCN3)C(=O)[C@@H]2O)cc1,13,15,19,,
7.00,COc1ccc([C@@H]2Cc3c(cccc3C(F)(F)F)N(C[C@@H]3CCCN3)C(=O)[C@@H]2O)cc1,21,21,32,,
6.43,COc1ccc([C@@H]2Sc3cc(OC)ccc3N(C[C@@H]3CCCN3)C(=O)[C@@H]2O)cc1,23,33,32,,
6.92,COc1ccc([C@@H]2Cc3c(Cl)cccc3N(C[C@@H]3CCCN3)C(=O)[C@@H]2OC(C)=O)cc1,20,17,18,17,7
6.47,COc1ccc([C@@H]2Sc3ccccc3N(C[C@@H]3CCCN3)C(=O)[C@@H]2OC(C)=O)cc1,10,8,18,57,32
5.52,COc1ccc([C@@H]2Cc3ccccc3N(CCN(C)C)C(=O)[C@@H]2OC(C)=O)cc1,13,,,53,18
6.89,COc1ccc(C2Sc3cc(OC)ccc3N(CCN(C)C)C(=O)C2OC(C)=O)cc1 (racemic),19,21,34,,
